Test results from patent publication US10493077B2, “Fused imidazo-piperidine JAK inhibitor compound” (THERAVANCE BIOPHARMA R&D IP, LLC, priority 2017, dated 2019).

What was measured:
[1] = Dynamic moisture sorption assessment; format: physicochemical; conditions: for weight gain, 5% to 70% relative humidity / weight gain, 5% to 90% relative humidity: room temperature
Method: Dynamic moisture sorption (DMS) measurement was performed using a VTI atmospheric microbalance, SGA-100 system (VTI Corp., Hialeah, Fla. 33016). A weighed sample was used and the humidity was lowest possible value (close to 0% RH) at the start of the analysis. The DMS analysis consisted of an initial drying step (0% RH) for 120 minutes, followed by two cycles of sorption and desorption with a scan rate of 5% RH/step over the humidity range of 5% RH to 90% RH. The DMS run was performed isothermally at 25° C.

[2] = Solid state stability assessment of Form 1; format: physicochemical
Method: Samples of the Form 1 crystalline free form of the invention were stored at 25° C. and 60% relative humidity (RH) and at 40° C. and 75% RH under two configurations a) open glass vial and b) closed glass vial placed inside an HDPE bottle containing desiccant. HDPE bottle was induction sealed. At specific intervals, the contents of a representative sample were removed and analyzed by HPLC for chemical purity (shown below as HPLC Purity (% a/a)).

AURKA = target: T1, AURKA (Homo sapiens, UniProt O14965); experiment: Kinome screen, AURKA; format: binding; conditions: screened at 1 μM
T1 construct: made in house; host or cells: T7 phage in E. coli (BL21-derived) or HEK-293
Method: (§1) Kinase-tagged T7 phage strains were grown in parallel in 24-well blocks in an E. coli host derived from the BL21 strain. E. coli were grown to log-phase and infected with T7 phage from a frozen stock (multiplicity of infection=0.4) and incubated with shaking at 32° C. until lysis (90-150 minutes). The lysates were centrifuged (6,000×g) and filtered (0.2 μm) to remove cell debris. The remaining kinases were produced in HEK-293 cells and subsequently tagged with DNA for qPCR detection.
(§2) Streptavidin-coated magnetic beads were treated with biotinylated small molecule ligands for 30 minutes at room temperature to generate affinity resins for kinase assays. The liganded beads were blocked with excess biotin and washed with blocking buffer (SeaBlock (Pierce), 1% BSA, 0.05% Tween 20, 1 mM DTT) to remove unbound ligand and to reduce non-specific phage binding. […] Test compounds were prepared as 40× stocks in 100% DMSO and directly diluted into the assay. All reactions were performed in polypropylene 384-well plates in a final volume of 0.04 ml. […] The beads were then re-suspended in elution buffer (1×PBS, 0.05% Tween 20, 0.5 μM non-biotinylated affinity ligand) and incubated at room temperature with shaking for 30 minutes. The kinase concentration in the eluates was measured by qPCR.

GSK3B = target: T2, GSK3B (Homo sapiens, UniProt P49841); experiment: Kinome screen, GSK3B; format: binding; conditions: screened at 1 μM
T2 construct: made in house; host or cells: T7 phage in E. coli (BL21-derived) or HEK-293
Method: as §1, §2

CDK9 = target: T3, CDK9 (Homo sapiens, UniProt P50750); experiment: Kinome screen, CDK9; format: binding; conditions: screened at 1 μM
T3 construct: made in house; host or cells: T7 phage in E. coli (BL21-derived) or HEK-293
Method: as §1, §2

35 different kinases = experiment: Kinome screen: GINI coefficient; format: binding; conditions: panel of 35 different kinases; higher number = more selective
Method: as §1
as §2, with “The” for “The beads were then re-suspended in elution buffer (1×PBS, 0.05% Tween 20, 0.5 μM non-biotinylated affinity ligand) and incubated at room temperature with shaking for 30 minutes. The”
Both compounds 1 and C-1 were screened against 35 different kinases. The Gini coefficient was determined for both compounds. […]

KIT = target: T4, KIT (Homo sapiens, UniProt P10721); experiment: Kinome screen, KIT; format: binding; conditions: screened at 1 μM
T4 construct: made in house; host or cells: T7 phage in E. coli (BL21-derived) or HEK-293
Method: as §1, §2

PAK4 = target: T5, PAK4 (Homo sapiens, UniProt O96013); experiment: Kinome screen, PAK4; format: binding; conditions: screened at 1 μM
T5 construct: made in house; host or cells: T7 phage in E. coli (BL21-derived) or HEK-293
Method: as §1, §2

CDK7 = target: T6, CDK7 (Homo sapiens, UniProt P50613); experiment: Kinome screen, CDK7; format: binding; conditions: screened at 1 μM
T6 construct: made in house; host or cells: T7 phage in E. coli (BL21-derived) or HEK-293
Method: as §1, §2

ALK = target: T7, ALK (Homo sapiens, UniProt Q9UM73); experiment: Kinome screen, ALK; format: binding; conditions: screened at 1 μM
T7 construct: made in house; host or cells: T7 phage in E. coli (BL21-derived) or HEK-293
Method: as §1, §2

EPHB6 = target: T8, EPHB6 (Homo sapiens, UniProt O15197); experiment: Kinome screen, EPHB6; format: binding; conditions: screened at 1 μM
T8 construct: made in house; host or cells: T7 phage in E. coli (BL21-derived) or HEK-293
Method: as §1, §2

SYK = target: T9, SYK (Homo sapiens, UniProt P43405); experiment: Kinome screen, SYK; format: binding; conditions: screened at 1 μM
T9 construct: made in house; host or cells: T7 phage in E. coli (BL21-derived) or HEK-293
Method: as §1, §2

CDK2 = target: T10, CDK2 (Homo sapiens, UniProt P24941); experiment: Kinome screen, CDK2; format: binding; conditions: screened at 1 μM
T10 construct: made in house; host or cells: T7 phage in E. coli (BL21-derived) or HEK-293
Method: as §1, §2

CSF1R = target: T11, CSF1R (Homo sapiens, UniProt P07333); experiment: Kinome screen, CSF1R; format: binding; conditions: screened at 1 μM
T11 construct: made in house; host or cells: T7 phage in E. coli (BL21-derived) or HEK-293
Method: as §1, §2

VEGFR2 = target: T12, VEGFR2 (Homo sapiens, UniProt P35968); experiment: Kinome screen, VEGFR2; format: binding; conditions: screened at 1 μM
T12 construct: made in house; host or cells: T7 phage in E. coli (BL21-derived) or HEK-293
Method: as §1, §2

PKAC-ALPHA = target: T13, PKAC-ALPHA (Homo sapiens, UniProt P17612); experiment: Kinome screen, PKAC-ALPHA; format: binding; conditions: screened at 1 μM
T13 construct: made in house; host or cells: T7 phage in E. coli (BL21-derived) or HEK-293
Method: as §1, §2

PLK4 = target: T14, PLK4 (Homo sapiens, UniProt O00444); experiment: Kinome screen, PLK4; format: binding; conditions: screened at 1 μM
T14 construct: made in house; host or cells: T7 phage in E. coli (BL21-derived) or HEK-293
Method: as §1, §2

[3] = system: BEAS-2B human lung epithelial cells; experiment: CellTiter-Glo cell viability/cytotoxicity assay; format: cell-based; conditions: BEAS-2B cells, 48 h, concentration at 15% inhibition threshold
Method: A CellTiter-Glo luminescent cell viability/cytotoxicity assay was carried out in BEAS-2B human lung epithelial cells (ATCC) under the normal growth condition.
Cells were grown at 37° C. in a 5% CO2 humidified incubator in 50% DMEM/50% F-12 medium (Life Technologies) supplemented with 10% FBS (Hyclone), 100 U/mL penicillin, 100 μg/mL streptomycin (Life Technologies), and 2 mM GlutaMAX (Life Technologies). On day 1 of the assay, cells were seeded at a 500 cells/well density in white 384-well tissue culture plates (Corning) with 25 μL medium, and were allowed to adhere overnight in the incubator. On day 2 of the assay, 5 μL of medium containing dose-responses of test compounds was added, and incubated at 37° C. for 48 h. 30 μL of CellTiter-Glo detection solution (Promega) was subsequently added, mixed on an orbital shaker for 5 min, and incubated for additional 10 min before being read on the EnVision reader. Luminescence signals were recorded and percent DMSO control values were calculated.
For dose-response analysis, percent DMSO control data were plotted vs. compound concentrations to derive dose-response curves by line connecting each data point. The concentration at which each curve crosses the 15% inhibition threshold is defined as CC15.

SLK = target: T15, SLK (Homo sapiens, UniProt Q9H2G2); experiment: Kinome screen, SLK; format: binding; conditions: screened at 1 μM
T15 construct: made in house; host or cells: T7 phage in E. coli (BL21-derived) or HEK-293
Method: as §1, §2

SRC = target: T16, SRC (Homo sapiens, UniProt P12931); experiment: Kinome screen, SRC; format: binding; conditions: screened at 1 μM
T16 construct: made in house; host or cells: T7 phage in E. coli (BL21-derived) or HEK-293
Method: as §1, §2

T8 sequence (O15197 32-1021): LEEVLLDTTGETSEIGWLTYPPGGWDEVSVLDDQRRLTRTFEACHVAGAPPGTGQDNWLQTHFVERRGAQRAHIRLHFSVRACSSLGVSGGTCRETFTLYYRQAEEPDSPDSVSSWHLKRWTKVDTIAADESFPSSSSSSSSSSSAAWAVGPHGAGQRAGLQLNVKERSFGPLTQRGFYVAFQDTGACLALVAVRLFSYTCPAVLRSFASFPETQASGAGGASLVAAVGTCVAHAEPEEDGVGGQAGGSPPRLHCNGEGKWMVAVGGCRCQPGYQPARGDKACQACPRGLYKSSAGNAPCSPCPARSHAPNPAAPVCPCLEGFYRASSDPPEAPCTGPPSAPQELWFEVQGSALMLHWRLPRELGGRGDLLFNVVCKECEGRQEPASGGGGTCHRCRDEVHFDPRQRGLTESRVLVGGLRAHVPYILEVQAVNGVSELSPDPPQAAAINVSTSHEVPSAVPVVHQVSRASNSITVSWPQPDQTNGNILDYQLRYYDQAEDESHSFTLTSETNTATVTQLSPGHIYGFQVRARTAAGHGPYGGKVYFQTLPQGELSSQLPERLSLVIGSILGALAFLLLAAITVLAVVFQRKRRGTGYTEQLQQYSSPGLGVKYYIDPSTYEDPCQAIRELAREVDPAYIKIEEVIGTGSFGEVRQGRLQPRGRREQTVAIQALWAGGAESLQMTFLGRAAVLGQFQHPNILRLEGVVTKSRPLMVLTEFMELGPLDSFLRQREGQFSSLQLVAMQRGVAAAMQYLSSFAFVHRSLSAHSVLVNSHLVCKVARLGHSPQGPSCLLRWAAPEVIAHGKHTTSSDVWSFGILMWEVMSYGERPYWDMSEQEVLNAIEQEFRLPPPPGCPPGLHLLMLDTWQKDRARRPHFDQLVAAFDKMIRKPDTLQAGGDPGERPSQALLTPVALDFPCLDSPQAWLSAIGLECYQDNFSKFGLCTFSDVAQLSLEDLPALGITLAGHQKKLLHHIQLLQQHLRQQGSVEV
T16 sequence (P12931 whole entry): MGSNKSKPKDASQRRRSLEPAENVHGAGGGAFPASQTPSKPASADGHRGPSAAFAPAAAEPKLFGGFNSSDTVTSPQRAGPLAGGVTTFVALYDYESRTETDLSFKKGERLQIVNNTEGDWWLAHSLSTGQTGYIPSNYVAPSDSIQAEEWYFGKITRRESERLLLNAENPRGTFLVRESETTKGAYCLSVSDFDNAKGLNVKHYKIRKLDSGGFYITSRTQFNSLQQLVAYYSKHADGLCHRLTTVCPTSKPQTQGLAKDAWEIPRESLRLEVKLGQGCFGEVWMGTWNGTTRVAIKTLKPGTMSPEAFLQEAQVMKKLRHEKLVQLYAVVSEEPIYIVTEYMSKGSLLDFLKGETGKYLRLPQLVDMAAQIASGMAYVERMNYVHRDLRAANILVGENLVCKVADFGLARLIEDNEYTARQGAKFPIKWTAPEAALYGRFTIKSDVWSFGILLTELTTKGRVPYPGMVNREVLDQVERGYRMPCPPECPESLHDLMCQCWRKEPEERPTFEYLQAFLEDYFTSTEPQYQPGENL
T6 sequence (P50613 whole entry): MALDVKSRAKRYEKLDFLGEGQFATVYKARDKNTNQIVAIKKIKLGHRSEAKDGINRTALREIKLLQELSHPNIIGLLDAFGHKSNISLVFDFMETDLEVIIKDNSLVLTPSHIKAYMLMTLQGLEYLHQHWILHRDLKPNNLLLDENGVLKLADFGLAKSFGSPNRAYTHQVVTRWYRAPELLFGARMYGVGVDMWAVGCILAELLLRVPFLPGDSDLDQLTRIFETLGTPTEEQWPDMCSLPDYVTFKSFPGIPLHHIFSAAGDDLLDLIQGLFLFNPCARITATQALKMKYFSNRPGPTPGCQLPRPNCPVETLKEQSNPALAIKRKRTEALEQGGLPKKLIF
T7 sequence (Q9UM73 19-1620): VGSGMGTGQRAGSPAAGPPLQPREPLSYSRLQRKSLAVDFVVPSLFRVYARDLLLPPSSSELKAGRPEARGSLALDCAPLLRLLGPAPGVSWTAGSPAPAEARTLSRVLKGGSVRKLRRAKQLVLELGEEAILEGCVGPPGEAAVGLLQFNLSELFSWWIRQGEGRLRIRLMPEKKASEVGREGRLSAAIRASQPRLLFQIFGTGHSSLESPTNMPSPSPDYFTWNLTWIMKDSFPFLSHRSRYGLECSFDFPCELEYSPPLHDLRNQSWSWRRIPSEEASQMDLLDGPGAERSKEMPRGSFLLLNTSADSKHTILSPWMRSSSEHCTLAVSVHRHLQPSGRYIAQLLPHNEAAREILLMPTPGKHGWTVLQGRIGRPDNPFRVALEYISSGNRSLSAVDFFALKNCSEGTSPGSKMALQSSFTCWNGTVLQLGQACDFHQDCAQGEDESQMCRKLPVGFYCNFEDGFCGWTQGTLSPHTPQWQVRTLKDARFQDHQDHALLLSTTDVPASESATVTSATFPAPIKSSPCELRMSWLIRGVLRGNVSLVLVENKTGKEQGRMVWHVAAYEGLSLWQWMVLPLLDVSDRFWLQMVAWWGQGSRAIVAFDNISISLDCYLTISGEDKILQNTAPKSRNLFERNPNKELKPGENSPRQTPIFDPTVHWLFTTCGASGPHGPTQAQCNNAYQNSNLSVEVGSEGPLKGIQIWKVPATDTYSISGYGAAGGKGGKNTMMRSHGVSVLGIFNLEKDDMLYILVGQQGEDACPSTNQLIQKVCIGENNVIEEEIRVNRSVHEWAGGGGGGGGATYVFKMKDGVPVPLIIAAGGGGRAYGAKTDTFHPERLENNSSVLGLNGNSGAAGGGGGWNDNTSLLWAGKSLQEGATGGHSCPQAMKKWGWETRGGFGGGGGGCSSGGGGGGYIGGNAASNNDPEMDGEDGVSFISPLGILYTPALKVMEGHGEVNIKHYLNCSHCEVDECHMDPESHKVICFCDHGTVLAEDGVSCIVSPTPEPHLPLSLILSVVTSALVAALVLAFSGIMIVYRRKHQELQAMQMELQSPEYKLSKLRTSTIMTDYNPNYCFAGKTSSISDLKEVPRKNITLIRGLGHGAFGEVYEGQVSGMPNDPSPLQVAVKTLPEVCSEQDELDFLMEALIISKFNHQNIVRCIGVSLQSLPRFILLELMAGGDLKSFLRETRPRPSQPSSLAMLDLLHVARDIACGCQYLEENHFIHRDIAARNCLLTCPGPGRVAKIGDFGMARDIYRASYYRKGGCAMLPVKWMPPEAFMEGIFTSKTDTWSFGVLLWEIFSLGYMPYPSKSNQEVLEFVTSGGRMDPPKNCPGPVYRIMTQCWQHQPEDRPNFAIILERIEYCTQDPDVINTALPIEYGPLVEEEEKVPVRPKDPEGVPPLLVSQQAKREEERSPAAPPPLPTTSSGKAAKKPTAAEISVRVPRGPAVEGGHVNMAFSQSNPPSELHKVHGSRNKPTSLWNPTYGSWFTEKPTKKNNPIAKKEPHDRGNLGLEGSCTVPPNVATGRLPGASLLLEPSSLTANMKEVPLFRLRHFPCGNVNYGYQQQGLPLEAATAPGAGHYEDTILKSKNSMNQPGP
T1 sequence (O14965 whole entry): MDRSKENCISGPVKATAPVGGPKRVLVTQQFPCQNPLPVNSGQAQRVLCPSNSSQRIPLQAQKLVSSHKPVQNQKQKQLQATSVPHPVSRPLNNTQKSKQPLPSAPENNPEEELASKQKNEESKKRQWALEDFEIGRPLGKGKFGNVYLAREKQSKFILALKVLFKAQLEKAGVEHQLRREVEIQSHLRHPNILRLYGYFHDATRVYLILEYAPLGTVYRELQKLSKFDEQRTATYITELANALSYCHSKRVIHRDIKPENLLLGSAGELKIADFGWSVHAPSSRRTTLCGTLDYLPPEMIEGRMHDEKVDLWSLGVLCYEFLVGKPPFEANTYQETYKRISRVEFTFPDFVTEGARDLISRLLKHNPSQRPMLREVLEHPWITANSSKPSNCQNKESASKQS
T2 sequence (P49841 whole entry): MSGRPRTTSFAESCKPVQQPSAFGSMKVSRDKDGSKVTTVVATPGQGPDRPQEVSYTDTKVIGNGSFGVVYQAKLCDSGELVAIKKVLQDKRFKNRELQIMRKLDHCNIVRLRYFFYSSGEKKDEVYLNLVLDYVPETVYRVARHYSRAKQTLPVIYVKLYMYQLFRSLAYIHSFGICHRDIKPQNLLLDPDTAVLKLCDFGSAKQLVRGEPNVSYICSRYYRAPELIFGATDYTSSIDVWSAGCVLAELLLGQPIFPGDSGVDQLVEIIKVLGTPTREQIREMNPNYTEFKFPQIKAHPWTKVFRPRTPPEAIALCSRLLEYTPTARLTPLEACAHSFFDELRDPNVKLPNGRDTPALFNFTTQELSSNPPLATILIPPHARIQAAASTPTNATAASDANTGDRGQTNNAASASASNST
T5 sequence (O96013 whole entry): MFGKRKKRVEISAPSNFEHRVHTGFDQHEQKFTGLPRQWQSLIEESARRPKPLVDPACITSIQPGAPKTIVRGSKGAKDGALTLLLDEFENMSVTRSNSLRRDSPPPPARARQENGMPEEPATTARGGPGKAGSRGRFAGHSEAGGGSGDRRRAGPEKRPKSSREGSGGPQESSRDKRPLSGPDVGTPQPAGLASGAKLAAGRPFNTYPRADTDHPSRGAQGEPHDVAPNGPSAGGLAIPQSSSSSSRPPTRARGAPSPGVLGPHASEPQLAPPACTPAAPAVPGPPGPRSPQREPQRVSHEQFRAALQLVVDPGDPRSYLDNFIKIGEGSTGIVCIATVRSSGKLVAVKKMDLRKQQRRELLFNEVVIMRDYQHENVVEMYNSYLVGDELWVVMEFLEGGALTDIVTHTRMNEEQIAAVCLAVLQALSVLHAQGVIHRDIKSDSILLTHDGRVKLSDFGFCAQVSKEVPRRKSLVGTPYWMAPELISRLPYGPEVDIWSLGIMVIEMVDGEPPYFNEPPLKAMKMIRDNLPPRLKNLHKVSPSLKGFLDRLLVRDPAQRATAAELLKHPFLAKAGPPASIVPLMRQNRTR

SMILES: CCc1cc(O)c(F)cc1-c1cc(F)c2c(-c3nc4c([nH]3)CCN(C(=O)CN3CCOCC3)C4)n[nH]c2c1 [Form 2, 1-(2-(6-(2-Ethyl-5-fluoro-4-hydroxyphenyl)-4-fluoro-1H-indazol-3-yl)-1,4,6,7-tetrahydro-5H-imidazo[4,5-c]pyridin-5-yl)-2-morpholinoethan-1-one]
- hygroscopicity [1]: non-hygroscopic
- weight gain, 5% to 70% relative humidity [1]: about 0.12%
- weight gain, 5% to 90% relative humidity [1]: about 0.18%

SMILES: CCc1cc(O)c(F)cc1-c1cc(F)c2c(-c3nc4c([nH]3)CCN(C(=O)CN3CCOCC3)C4)n[nH]c2c1 [Form 1, 1-(2-(6-(2-Ethyl-5-fluoro-4-hydroxyphenyl)-4-fluoro-1H-indazol-3-yl)-1,4,6,7-tetrahydro-5H-imidazo[4,5-c]pyridin-5-yl)-2-morpholinoethan-1-one]
- hygroscopicity [1]: slightly-hygroscopic
- weight gain, 5% to 70% relative humidity [1]: about 0.99%
- weight gain, 5% to 90% relative humidity [1]: about 1.32%
- HPLC Purity ([2]; 2 weeks, 40° C./75% RH Open): 98.72 % a/a
- HPLC Purity ([2]; 4 weeks, 25° C./60% RH Closed With Desiccant): 98.75 % a/a
- HPLC Purity ([2]; 4 weeks, 25° C./60% RH Open): 98.75 % a/a
- HPLC Purity ([2]; 4 weeks, 40° C./75% RH Closed With Desiccant): 98.75 % a/a
- HPLC Purity ([2]; 4 weeks, 40° C./75% RH Open): 98.70 % a/a
- HPLC Purity ([2]; 8 weeks, 25° C./60% RH Closed With Desiccant): 98.87 % a/a
- HPLC Purity ([2]; 8 weeks, 25° C./60% RH Open): 98.75 % a/a
- HPLC Purity ([2]; 8 weeks, 40° C./75% RH Closed With Desiccant): 98.80 % a/a
- HPLC Purity ([2]; 8 weeks, 40° C./75% RH Open): 98.97 % a/a
- HPLC Purity ([2]; 24 weeks, 25° C./60% RH Closed With Desiccant): 99.02 % a/a
- HPLC Purity ([2]; 24 weeks, 25° C./60% RH Open): 98.78 % a/a
- HPLC Purity ([2]; 24 weeks, 40° C./75% RH Closed With Desiccant): 99.06 % a/a
- HPLC Purity ([2]; 24 weeks, 40° C./75% RH Open): 98.89 % a/a
- HPLC Purity ([2]; 36 weeks, 25° C./60% RH Closed With Desiccant): 98.80 % a/a
- HPLC Purity ([2]; 36 weeks, 25° C./60% RH Open): 98.75 % a/a
- HPLC Purity ([2]; 36 weeks, 40° C./75% RH Closed With Desiccant): 98.86 % a/a
- HPLC Purity ([2]; 36 weeks, 40° C./75% RH Open): 98.71 % a/a
- changes in chemical purity ([2]; after 36 weeks at accelerated conditions of 40° C. and 75% relative humidity): no statistically significant changes
- HPLC Purity ([2]; time point 0 weeks): 98.73 % a/a

SMILES: CCc1cc(O)c(F)cc1-c1ccc2c(-c3nc4c([nH]3)CCN(C(=O)CN3CCOCC3)C4)n[nH]c2c1 [C-1, 1-(2-(6-(2-Ethyl-5-fluoro-4-hydroxyphenyl)-1H-indazol-3-yl)-1,4,6,7-tetrahydro-5H-imidazo[4,5-c]pyridin-5-yl)-2-morpholinoethan-1-one, reference compound]
- inhibition at 1 µM (AURKA): 57%
- inhibition at 1 µM (GSK3B): 68%
- inhibition at 1 µM (CDK9): 95%
- GINI coefficient (35 different kinases): 0.46
- inhibition at 1 µM (KIT): 99%
- inhibition at 1 µM (PAK4): 99%
- inhibition at 1 µM (CDK7): 99%
- inhibition at 1 µM (ALK): 81%
- inhibition at 1 µM (EPHB6): 98%
- inhibition at 1 µM (SYK): 78%
- inhibition at 1 µM (CDK2): 53%
- inhibition at 1 µM (CSF1R): 100%
- inhibition at 1 µM (VEGFR2): 63%
- inhibition at 1 µM (PKAC-ALPHA): 70%
- inhibition at 1 µM (PLK4): 68%
- CC15 [3]: 630 nM
- inhibition at 1 µM (SLK): 100%
- inhibition at 1 µM (SRC): 100%
